These results are taken from US20250197389A1, “NITROGEN-CONTAINING HETEROCYCLIC COMPOUND” (SHANGHAI SHIJIANG BIOTECHNOLOGY CO., LTD, priority 2022, published 2025).

In one experiment the test system is mPTP-active Daoy cell. Description: Inhibitory effect on mPTP-active Daoy cell (Promega CellTiter-Glo, intracellular ATP). Type of experiment: cell-based, human. Conditions: Daoy cell transfected with empty virus vector without PPIF shRNA. (In general: In ATP-based viability assays light output follows the ATP content of the culture.)
A further experiment deals with mPTP-inactive Daoy cell. As to the kind of experiment: Inhibitory effect on mPTP-inactive Daoy cell (PPIF shRNA; Promega CellTiter-Glo, intracellular ATP). Type of experiment: cell-based, human. Conditions: Daoy cell transfected with virus vector carrying PPIF shRNA. The source says: The activity of mitochondria permeability transition pore (mPTP) was regulated by the PPIF protein. […] PPIF protein activity was restricted by the expression level of PPIF protein in cell.

In general, IC50 refers to the midpoint of a concentration-inhibition curve. A low value points to higher potency. In the case of `COc1ccc2c(c1OC)CN1CCc3cc4c(cc3C1=C2Cc1ccc(OC(F)(F)F)cc1)OCO4` [AB31866], the concentration for half-maximal inhibition (IC50) turned out to be 6.78 µM with mPTP-active Daoy cell (Homo sapiens, Daoy) and 3.38 µM in the experiment on mPTP-inactive Daoy cell (Homo sapiens, Daoy).
The matching figures for `COc1ccc2c(c1OC)CN1CCc3cc4c(cc3C1=C2Cc1ccc(C(C)C)cc1)OCO4` [AB31870]: 3.94 µM and 1.86 µM.
In the same order, the values of `CCCCC1c2c(c(Br)cc(OC)c2OC)C=C2c3cc4c(cc3CCN21)OCO4` (centres unmarked) [AB31873] are 6.44 µM and 3.13 µM.
In the same order, the values of `COc1ccc2c(c1OCCCBr)CN1CCc3cc4c(cc3C1C2)OCO4` (centres unmarked) [AB31878] are 10.4 µM and 11 µM.
Consider `CCCCCCC1c2c(ccc(OC)c2OC)C=C2c3cc4c(cc3CCN21)OCCO4` (centres unmarked) [AB31880], for which the IC50 with mPTP-active Daoy cell (Homo sapiens, Daoy) was determined as 2.93 µM; in the experiment on mPTP-inactive Daoy cell (Homo sapiens, Daoy), 1.13 µM.
The matching figures for `COc1ccc2c(c1OCCCCOc1ccccc1)C(C)N1CCc3cc4c(cc3C1=C2)OCO4` (centres unmarked) [AB31881]: 4.34 µM and 2.12 µM.
The matching figures for `COc1ccc2c(c1OCCCBr)C(C)N1CCc3cc4c(cc3C1=C2)OCO4` (centres unmarked) [AB31887]: 6.47 µM and 3.17 µM.
In the same order, the values of `COc1ccc2c(c1OCCCCCCCl)C(C)N1CCc3cc4c(cc3C1=C2)OCO4` (centres unmarked) [AB31888] are 5.46 µM and 2.68 µM.
Regarding `COc1ccc2c(c1NCCc1ccccc1)C(C)N1CCc3cc4c(cc3C1=C2)OCO4` (centres unmarked) [AB31895], the IC50 with mPTP-active Daoy cell (Homo sapiens, Daoy) is 3.15 µM; in the experiment with mPTP-inactive Daoy cell (Homo sapiens, Daoy) it was 1.46 µM.
The matching figures for `COc1ccc2c(c1OC(=O)CC13CC4CC(CC(C4)C1)C3)C(C)N1CCc3cc4c(cc3C1=C2)OCO4` (centres unmarked) [AB31896]: 5.02 µM and 2.42 µM.
In the same order, the values of `COc1ccc2c(c1OCCCCCCBr)C(C)N1CCc3cc4c(cc3C1=C2)OCO4` (centres unmarked) [AB31897] are 3.43 µM and 1.58 µM.
In the same order, the values of `COc1ccc2c(c1OC)C(C)N1CCc3cc4c(cc3C1=C2)OCCO4` (centres unmarked) [AB31898] are 9.54 µM and 4.43 µM.
As for `COc1ccc2c(c1OC/C=C(\C)CCC=C(C)C)C(C)N1CCc3cc4c(cc3C1=C2)OCO4` (centres unmarked) [AB35402], the IC50 was 1.72 µM with mPTP-active Daoy cell (Homo sapiens, Daoy) and 0.81 µM in the experiment on mPTP-inactive Daoy cell (Homo sapiens, Daoy).
As for `COc1ccc2c(c1OC/C=C(\C)CCC=C(C)C)C(C(Cl)(Cl)Cl)N1CCc3cc4c(cc3C1=C2)OCO4` (centres unmarked) [AB35405], the IC50 was 2.68 µM in the experiment on mPTP-active Daoy cell (Homo sapiens, Daoy) and 1.21 µM in the experiment with mPTP-inactive Daoy cell (Homo sapiens, Daoy).
The matching figures for `COc1ccc2c(c1OCCCCCCNC(=O)OC(C)(C)C)C(C(Cl)(Cl)Cl)N1CCc3cc4c(cc3C1=C2)OCO4` (centres unmarked) [AB35407]: 2.83 µM and 1.34 µM.
For `COc1ccc2c(c1OC)C(C)N1CCc3cc4c(cc3C1=C2CCCc1ccccc1)OCO4` (centres unmarked) [AB35411], the IC50 worked out at 3.51 µM in the experiment with mPTP-active Daoy cell and 1.78 µM in the experiment with mPTP-inactive Daoy cell.
`CC1c2c(ccc3c2OCO3)C=C2c3cc4c(cc3CCN21)OCO4` (centres unmarked) [AB35413]: the IC50 in the experiment with mPTP-active Daoy cell (Homo sapiens, Daoy) is 13.3 µM; in the experiment on mPTP-inactive Daoy cell (Homo sapiens, Daoy) it was 6.87 µM.
As for `COc1ccc2c(c1OCCCCCCNC(=O)OC(C)(C)C)C(C)N1CCc3cc4c(cc3C1=C2)OCO4` (centres unmarked) [AB35415], the IC50 in the experiment with mPTP-active Daoy cell (Homo sapiens, Daoy) was 4.79 µM; in the experiment with mPTP-inactive Daoy cell (Homo sapiens, Daoy), 2.26 µM.
For the molecule `COc1ccc2c(c1OCCNC(=O)OC(C)(C)C)C(C(Cl)(Cl)Cl)N1CCc3cc4c(cc3C1=C2)OCO4` (centres unmarked) [AB35416], the IC50 in the experiment with mPTP-active Daoy cell (Homo sapiens, Daoy) stood at 10.6 µM; in the experiment on mPTP-inactive Daoy cell (Homo sapiens, Daoy), 5.11 µM.
Take `COc1ccc2c(c1OC)C(C(Cl)(Cl)Cl)N1CCc3cc4c(cc3C1=C2CCCc1ccccc1)OCO4` (centres unmarked) [AB35417]: the IC50 with mPTP-active Daoy cell (Homo sapiens, Daoy) was determined as 3.62 µM; with mPTP-inactive Daoy cell (Homo sapiens, Daoy), 1.61 µM.
The matching figures for `CCCCCC1=C2c3cc4c(cc3CCN2C(C(Cl)(Cl)Cl)c2c1ccc(OC)c2OC)OCO4` (centres unmarked) [AB35418]: 3.25 µM and 1.56 µM.
In the same order, the values of `COc1ccc2c(c1OCCN1CCCCC1)C(C(Cl)(Cl)Cl)N1CCc3cc4c(cc3C1=C2)OCO4` (centres unmarked) [AB35420] are 9.55 µM and 4.59 µM.
For the molecule `ClC(Cl)(Cl)C1c2c(ccc3c2OCO3)C=C2c3cc4c(cc3CCN21)OCO4` (centres unmarked) [AB35421], the half-maximal inhibitory concentration (IC50) with mPTP-active Daoy cell (Homo sapiens, Daoy) was > 50 µM; in the experiment on mPTP-inactive Daoy cell (Homo sapiens, Daoy), 24.9 µM.
In the same order, the values of `CCCCCC1=C2c3cc4c(cc3CCN2C(C)c2c1ccc(OC)c2OC)OCO4` (centres unmarked) [AB35422] are 5.27 µM and 2.59 µM.
As to `COc1ccc2c(c1OCCCCNC(=O)OC(C)(C)C)C(C(Cl)(Cl)Cl)N1CCc3cc4c(cc3C1=C2)OCO4` (centres unmarked) [AB35423], the IC50 was 4.82 µM with mPTP-active Daoy cell and 2.36 µM in the experiment with mPTP-inactive Daoy cell.
For `COc1ccc2c(c1OCCNC(=O)OC(C)(C)C)C(C)N1CCc3cc4c(cc3C1=C2)OCO4` (centres unmarked) [AB35424], the IC50 in the experiment with mPTP-active Daoy cell (Homo sapiens, Daoy) came to 13.8 µM; with mPTP-inactive Daoy cell (Homo sapiens, Daoy) it was 6.18 µM.
In the same order, the values of `CCCCCCC1c2c(ccc3c2OCO3)C=C2c3cc4c(cc3CCN21)OCO4` (centres unmarked) [AB35426] are 2.71 µM and 1.03 µM.
In the same order, the values of `CC1c2c(ccc3c2OCO3)C(CCCc2ccccc2)=C2c3cc4c(cc3CCN21)OCO4` (centres unmarked) [AB35427] are 3.27 µM and 1.49 µM.
